According to US12377074B2, “Treatment for Wolfram syndrome” (YALE UNIVERSITY, priority 2019, dated 2025):
Entries after “also recorded” stand apart in the source; their conditions may differ.

Experiments:
INS-1 cells (WT) = experiment: Cell survival after high glucose, WT INS-1 cells (first set); assay type: cell-based, rat; conditions: for cell survival after treatment with 31 mM glucose for 48 hours (glucose induced cell death): survival normalized to % survival at 1 mM glucose
Procedure: (§1) Survival is normalized to % survival at 1 mM glucose.
as §1

WFS1 KO INS-1 cells = experiment: Cell survival after high glucose, WFS1 KO INS-1 cells (first set); assay type: cell-based, rat; conditions: for cell survival after treatment with 31 mM glucose for 48 hours (glucose induced cell death): 31 mM glucose 48 h, survival normalized to % survival at 1 mM glucose
Procedure: as §1
The concentration range for protection from cell death by high glucose in WFS1 KO cells is similar.

WFS1-deficient cells [1] = conditions: cited from earlier work
[2] = system: calpain activity in INS-1 cells; conditions: siRNA against WFS1, 10 μM dantrolene 48 h, then 0.5 μM thapsigargin 6 h, cleaved spectrin relative to GAPDH; cited from earlier work
[3] = cited from earlier work
WFS1-deficient cells [4] = conditions: cited from earlier work; remark: listed apart in the source
WFS1-WT INS1 cells [5] = experiment: CellTiter-Glo cell viability assay, WFS1-WT cells; assay type: cell-based, rat; conditions: 30 mM additional glucose (30G) 48 h, normalized to CTRL, 10 μM in FIG. 19C
Procedure: (§2) CellTiter-Glo™ (CTG) assay (Promega) was used to quantify ATP-dependent bioluminescence as an indicator of cell viability. To assess cell viability, INS1 cells were plated in white 96-well plates (Cat. 07-200-628, Fisher Scientific) at a density of 2×10^3 cells per well and treated the following day with high glucose and/or the indicated drugs for 48 hours before imaging. After treatment was completed, 100 μL of CTG solution was added to each well and 20 minutes later, reading was performed using a Tecan Infinite M1000 Pro microplate reader using the following setting: 5 s orbital shaking (3 mm, 216 rpm), followed by imaging in luminescence mode with 500 ms integration time.
(§3) Because intracellular calcium is an important determinant of cell viability, we measured cell viability in WFS1-WT and WFS1-KO cells. A luminescent, ATP-based assay was used. […] Following hyperglycemia (additional 30 mM glucose for 48 h), we observed an approximately 40% reduction in cell viability in WFS1-KO cells, whereas cell viability in WFS1-WT cells was only 15% lower than under control conditions (FIG. 19C). WFS1-KO cells could be rescued by WFS1 re-expression (SI Appendix, FIG. S5A). These findings are supported by previous reports showing that WFS1 deficiency causes progressive loss of pancreatic β-cells.

WFS1-WT INS1 cells [6] = experiment: Glucose-stimulated insulin secretion (insulin ELISA), WFS1-WT cells; assay type: cell-based, rat; conditions: 10 μM drug, 24 h
Procedure: (§4) For glucose-stimulated insulin secretion studies, INS1 cells were plated on 6-well plates at a density of 6×10^5 cells per well. After 24 hours, cells were incubated with drugs for another 24 hours. Two days after plating, the insulin ELISA assays were performed following a previously published protocol. In detail, preincubating cells in DMEM-base (Sigma) supplemented with 2.5 mM glucose for 1.5 h was followed by a 45 min incubation in DMEM-base with either 2.5 mM glucose for basal secretion or 9 mM glucose for stimulated secretion as indicated. 200 μl of supernatant were collected for analysis of insulin concentration using the Rat High Range ELISA kit (80-INSRTH-E01, ALPCO). Cells were washed with ice cold PBS and lysed in 1 mL 0.1% Triton X-100. Insulin levels were normalized to total protein measured by Micro BCA protein assay kit (23235, Thermo Fisher Scientific).

WFS1-KO INS1 cells [7] = experiment: CellTiter-Glo cell viability assay, WFS1-KO cells; assay type: cell-based, rat; conditions: for cell viability after hyperglycemia / cell viability at baseline: WFS1-KO cells; for cell viability after hyperglycemia: 30 mM additional glucose (30G) 48 h, normalized to CTRL, 10 μM in FIG. 19C; for cell viability at baseline: no additional glucose
Procedure: CellTiter-Glo™ (CTG) assay (Promega) was used to quantify ATP-dependent bioluminescence as an indicator of cell viability. […] After treatment was completed, 100 μL of CTG solution was added to each well and 20 minutes later, reading was performed using a Tecan Infinite M1000 Pro microplate reader using the following setting: 5 s orbital shaking (3 mm, 216 rpm), followed by imaging in luminescence mode with 500 ms integration time.
Because intracellular calcium is an important determinant of cell viability, we measured cell viability in WFS1-WT and WFS1-KO cells. A luminescent, ATP-based assay was used.

WFS1-KO INS1 cells [8] = experiment: Glucose-stimulated insulin secretion (insulin ELISA), WFS1-KO cells; assay type: cell-based, rat; conditions: 10 μM drug; for glucose-stimulated insulin secretion: 9 mM glucose stimulation; for difference in glucose-stimulated insulin secretion between WFS1-WT and WFS1-KO cells: after stimulation with 9 mM glucose
Procedure: as §4

WFS1-KO INS1 cells [9] = experiment: Resting cytosolic calcium imaging (Fura-2-AM), WFS1-KO cells; assay type: cell-based, rat; conditions: 10 μM, 24 h treatment
Procedure: (§5) 2×10^5 cells were plated on each coverslip 2 days before imaging in INS1 medium without G418. HEPES-buffered saline (140 mM NaCl. 1.13 mM MgCl2, 4.7 mM KCL, 2 mM CaCl2, 10 mM D-glucose, and 10 mM HEPES, adjusted to pH 7.4 with NaOH) was used to prepare calcium dye solution and during imaging. In calcium-free HEPES buffer, CaCl2 was replaced with MgCl2 and 0.1 mM EGTA was added to chelate calcium. Fura-2-AM dye powder (Thermo Fisher) was dissolved to 4 μM in calcium-containing HEPES buffer supplemented with 0.03% Pluronic acid (Thermo Fisher). On the day of imaging, each coverslip was incubated in dye solution for 45 min in the dark at room temperature. Each coverslip was then washed 3 times in HEPES-buffered saline solution before calcium imaging began. Calcium measurements were performed with a Hammamatsu Orca R2 camera attached to a Zeiss microscope with a Sutter Lambda DG4 for excitation ratio imaging. Cells were imaged using sequential excitation at 340/380 nm (Fura-2-AM). Images were acquired with emission bandwidth of 501 to 550 nm every second. The raw 340 and 380 signals for each cell were subtracted by corresponding background signal before a 340/380 ratio was calculated. Max amplitude and area under the curve were calculated using PRISM Statistical Software 8. Rate of rise was quantified as the gradient between 25% and 75% maximum amplitude. […]

WFS1-OE INS1 cells = experiment: CellTiter-Glo cell viability assay, WFS1-OE cells; assay type: cell-based, rat; conditions: 30 mM additional glucose (30G) 48 h
Procedure: as §2, §3

WFS1-WT INS1 cells [10] = experiment: Resting cytosolic calcium imaging (Fura-2-AM), WFS1-WT cells; assay type: cell-based, rat; conditions: 10 μM, 24 h treatment
Procedure: as §5

| SMILES | cell survival after treatment with 31 mM glucose for 48 hours (glucose induced cell death) (INS-1 cells (WT); 31 mM glucose 48 h) | cell survival after treatment with 31 mM glucose for 48 hours (glucose induced cell death) (WFS1 KO INS-1 cells) | cell viability after hyperglycemia (WFS1-WT INS1 cells [5]) | cell viability after hyperglycemia (WFS1-KO INS1 cells [7]) | cell viability at baseline (WFS1-KO INS1 cells [7]) | glucose-stimulated insulin secretion (WFS1-KO INS1 cells [8]; WFS1-KO cells, 24 h) | difference in glucose-stimulated insulin secretion between WFS1-WT and WFS1-KO cells (WFS1-KO INS1 cells [8]) | resting cytosolic calcium (WFS1-KO INS1 cells [9]) | cell viability after hyperglycemia (WFS1-OE INS1 cells) | resting cytosolic calcium (WFS1-WT INS1 cells [10]) | further results |
| --- | --- | --- | --- | --- | --- | --- | --- | --- | --- | --- | --- |
| [Li] [lithium] | no effect | no effect |  |  |  |  |  |  |  |  |  |
| O=C1CN(/N=C/c2ccc(-c3ccc([N+](=O)[O-])cc3)o2)C(O)=N1 [Dantrolene, dantrolene] |  |  |  |  |  |  |  |  |  |  | apoptosis (WFS1-deficient cells [1]): suppressed; calpain activity [2]: reduced; side effects of prolonged use [3]: liver toxicity; cytosolic calcium levels (WFS1-deficient cells [4]): restored |
| CN(C)CCCN1c2ccccc2Sc2ccc(Cl)cc21 [chlorpromazine] | no effect | no effect |  |  |  |  |  |  |  |  | cell survival after treatment with 31 mM glucose for 48 hours (glucose induced cell death) (INS-1 cells (WT); 31 mM glucose 48 h, listed as chlorprmazine): no effect on survival; cell survival after treatment with 31 mM glucose for 48 hours (glucose induced cell death) (WFS1 KO INS-1 cells; listed as chlorprmazine): no effect on survival |
| CCCC(CCC)C(=O)O [valproic acid] | no effect | no effect |  |  |  |  |  |  |  |  | cell survival after treatment with 31 mM glucose for 48 hours (glucose induced cell death) (INS-1 cells (WT); 31 mM glucose 48 h, listed as valproate): no effect on survival; cell survival after treatment with 31 mM glucose for 48 hours (glucose induced cell death) (WFS1 KO INS-1 cells; listed as valproate): no effect on survival |
| CC(C)C(=O)c1c(C(C)C)nn2ccccc12 [ibudilast] | rescued viability; also recorded: did protect cell survival | rescued viability | fully rescued cell viability back to baseline | fully rescued cell viability back to baseline; also recorded: rescued cell viability back to normal level | did not significantly affect cell viability; also recorded: slightly raised cell viability | reversed the impairment; also recorded: can be reversed | ameliorated the difference | lowered the resting cytosolic calcium in WFS1-KO cells to the level of WFS1-WT cells; also recorded: reversed elevated cytosolic calcium | fully rescued cell viability back to baseline | without affecting | cell survival at low (normal) glucose (INS-1 cells (WT); 1 mM glucose): no effect; also recorded: does not alter cell survival; concentration giving nearly full recovery/protection of survival (INS-1 cells (WT); 31 mM glucose 48 h): 1 µM; EC50 (INS-1 cells (WT); 31 mM glucose 48 h, read-out: half max effect on survival): ~300 nM; cell viability after hyperglycemia (WFS1-WT INS1 cells [5]; listed as IBU): rescued; insulin secretion at baseline (WFS1-WT INS1 cells [6]; 2.5 mM glucose): enhanced insulin secretion at baseline; cell viability after hyperglycemia (WFS1-KO INS1 cells [7]; listed as IBU): rescued; concentration range for protection from cell death by high glucose, compared with WT (WFS1 KO INS-1 cells; high glucose): similar; insulin secretion at baseline (WFS1-KO INS1 cells [8]; WFS1-KO cells, 2.5 mM glucose, 24 h): enhanced insulin secretion at baseline |
| CCC(NC(=O)OCc1ccccc1)C(=O)C(=O)NCCCN1CCOCC1 (centres unmarked) [calpain inhibitor XI] |  |  | fully rescued cell viability back to baseline | fully rescued cell viability back to baseline; also recorded: rescued cell viability back to normal level | did not significantly affect cell viability | reversed the impairment; also recorded: can be reversed | ameliorated the difference | lowered the resting cytosolic calcium in WFS1-KO cells to the level of WFS1-WT cells; also recorded: reversed elevated cytosolic calcium | fully rescued cell viability back to baseline | without affecting | cell viability after hyperglycemia (WFS1-WT INS1 cells [5]; listed as C.I.): rescued; insulin secretion (WFS1-WT INS1 cells [6]): did not affect; high glucose-induced loss of cell viability, dose dependence (WFS1-KO INS1 cells [7]; WFS1-KO cells (clone #1), high glucose, dose series): reversed glucose toxicity-induced loss of cell viability in a dose-dependent manner; also recorded: dose-dependently reversed; cell viability after hyperglycemia (WFS1-KO INS1 cells [7]; listed as C.I.): rescued |
